Source: patent US10888530B2, “Implantable drug delivery compositions and methods of use thereof” (AcuityBio Corporation, priority 2015, dated 2021)

Experiments:
[1] = Paclitaxel analysis in rabbit lung implant study (blood, pleural fluid, lung tissue); format: in vivo
Method: An incision at the 8th intercostal space was made into the thorax of anesthetized rabbits. The Caudal lobe was partially released from the underlying ligament. Implants were affixed as a sandwich at the apical end of a resected caudal lobe. In all cases, 2 implants top & bottom were preloaded onto a 30 mm GIA stapler. Stapling and resection were performed using a 30 mm GIA stapler. Animals were sutured, air was removed from the thorax and the wound covered. […] A general schematic of the reset procedure is provided by FIG. 13A-D. For example, the stapler jaws (with the implant) are positioned to grasp the tissue (FIG. 13A). Staples are then deployed through the implant securing it to the tissue at the same time as the internal blade bisects the stapled tissue (FIG. 13B). The now bisected implant is released from the stapler. The resected tissue is removed.

[2] = Therapeutic concentration range for paclitaxel

CC(=O)O[C@H]1C(=O)[C@@]2(C)[C@H]([C@H](OC(=O)c3ccccc3)[C@]3(O)C[C@H](OC(=O)[C@H](O)[C@@H](NC(=O)c4ccccc4)c4ccccc4)C(C)=C1C3(C)C)[C@]1(OC(C)=O)CO[C@@H]1C[C@@H]2O [paclitaxel]
concentration at 14 days ([1]; blood and tissues outside the thorax, rabbit, day 14): < 0.5 ng/mL | Paclitaxel level in pleural fluid ([1]; paclitaxel coated buttress implants): 10 to 100 nM | Paclitaxel concentration in blood (below quantifiable limits) ([1]; rabbit, 2 days, 7 days and terminally at 14 days): < 500 pg/mL | IC90 [2]: ~0.05 µM | IC90 (therapeutic concentration range) [2]: about 42.5 ng/ml
